Data on 6 molecules can be found in ChEMBL document CHEMBL2163222 (J Med Chem, 2012).

Data set [1] can be described thus: Inhibition of eIF2 protein expression in human U373 cells at 1 uM after 4 hrs by Western blotting method. It is filed as functional, cell-based. The note with it: U-373MG ATCC.
The test system of another data set is U-373MG ATCC. Nature of the data set: Inhibition of eIF2 activity in human U373 cells at 1 uM after 4 hrs by Western blotting method. It is filed as functional, cell-based. (In general: A western blot detects proteins with antibodies after separation by electrophoresis.)
Data set [2] can be described thus: Inhibition of eIF2 protein expression in human Hs683 cells at 5 uM after 4 hrs by Western blotting method. It is filed as functional, cell-based. The note with it: Hs 683.
The subject of data set [3] is Hs 683. Nature of the data set: Inhibition of eIF2 activity in human Hs683 cells at 5 uM after 4 hrs by Western blotting method. It is filed as functional, cell-based.
The species entered for another data set is Mus musculus. Description: Toxicity in mouse assessed as drug tolerance. It is filed as organism-based. The note with it: in vivo.
Data set [4] is described as follows: Solubility of compound at pH 7.4. The note with it: buffer. It is filed as physicochemical.
Data set [5] has as its target Tyrosine-protein kinase Tec (Homo sapiens) (UniProt P42680). Nature of the data set: Inhibition of TEC assessed as residual enzyme activity at 10 uM by radiometric protein kinase assay.
For data set [6], the target named is Tyrosine-protein kinase Fer (Homo sapiens) (UniProt P16591). Nature of the data set: Inhibition of FER assessed as residual enzyme activity at 10 uM by radiometric protein kinase assay.
Data set [7] has as its target TGF-beta receptor type-2 (Homo sapiens) (UniProt P37173). Nature of the data set: Inhibition of TGFB-R2 assessed as residual enzyme activity at 10 uM by radiometric protein kinase assay.
Data set [8] has as its target TGF-beta receptor type-1 (Homo sapiens) (UniProt P36897). Description: Inhibition of TGFB-R1 assessed as residual enzyme activity at 10 uM by radiometric protein kinase assay.
Data set [9] deals with MAP kinase-interacting serine/threonine-protein kinase 1 (Homo sapiens) (UniProt Q9BUB5). Description: Inhibition of MKNK1 assessed as residual enzyme activity at 10 uM by radiometric protein kinase assay.
The target of data set [10] is Myosin light chain kinase 2, skeletal/cardiac muscle (Homo sapiens) (UniProt Q9H1R3). Nature of the data set: Inhibition of MYLK2 assessed as residual enzyme activity at 10 uM by radiometric protein kinase assay.
The target of data set [11] is Myosin light chain kinase, smooth muscle (Homo sapiens) (UniProt Q15746). Description: Inhibition of MYLK assessed as residual enzyme activity at 10 uM by radiometric protein kinase assay.
Data set [12] deals with Calcium/calmodulin-dependent protein kinase type II subunit delta (Homo sapiens) (UniProt Q13557). Description: Inhibition of CAMK2D assessed as residual enzyme activity at 10 uM by radiometric protein kinase assay.
Data set [13] addresses Calcium/calmodulin-dependent protein kinase type II subunit alpha (Homo sapiens) (UniProt Q9UQM7). Description: Inhibition of CAMK2A assessed as residual enzyme activity at 10 uM by radiometric protein kinase assay.
The target of data set [14] is Serine/threonine-protein kinase 17A (Homo sapiens) (UniProt Q9UEE5). Nature of the data set: Inhibition of STK17A assessed as residual enzyme activity at 10 uM by radiometric protein kinase assay.
A short description of data set [15]: Cytostatic activity in human U373 cells at 0.9 uM assessed global growth ratio after 72 hrs by quantitative video microscopy. It is filed as functional, U-373MG ATCC.
A short description of data set [16]: Growth inhibition of human OE21 cells after 3 days by MTT assay. The note with it: OE21, 72 h. It is filed as functional, cell-based.
The next data set deals with OE33. Description: Growth inhibition of human OE33 cells after 3 days by MTT assay. The note with it: OE33, 72 h. It is filed as functional, cell-based.
Data set [17] relates to Hs 683. Nature of the data set: cells. The note with it: Homo sapiens, Hs 683, 72 h.
A further data set relates to T98G. Description: cells. The note with it: Homo sapiens, 72 h.
A short description of another data set: cells. The note with it: Homo sapiens, U373 MG, 72 h.
Data set [18] concerns the target Tyrosine-protein kinase CSK (Homo sapiens) (UniProt P41240). Description: Inhibition of CSK assessed as residual enzyme activity at 10 uM by radiometric protein kinase assay.
The nature of data set [19]: Cytostatic activity in human U373 cells at 24 uM assessed global growth ratio after 72 hrs by quantitative video microscopy. It is filed as functional, U-373MG ATCC.
Data set [20] has as its target Dual specificity tyrosine-phosphorylation-regulated kinase 1A (Homo sapiens, UniProt Q13627). Description: Inhibition of DYRK1A kinase using RBER-CHKtide substrate by radiometric protein kinase assay.
Data set [21] is described as follows: Cytostatic activity in human U373 cells at 31 uM assessed global growth ratio after 72 hrs by quantitative video microscopy. It is filed as functional, U-373MG ATCC.
The nature of data set [22]: Cytostatic activity in human U373 cells at 18 uM assessed global growth ratio after 72 hrs by quantitative video microscopy. It is filed as functional, U-373MG ATCC.
Data set [23] is described as follows: Cytostatic activity in human U373 cells at 64 uM assessed global growth ratio after 72 hrs by quantitative video microscopy. It is filed as functional, U-373MG ATCC.

Molecules are shown by their SMILES. Activity calls are given as the source filed them. The calls are words filed in the database; no cut-off is given here. Bounds are passed on as bounds.

Chain of Myosin light chain kinase, smooth muscle (Homo sapiens) (Q15746 whole entry): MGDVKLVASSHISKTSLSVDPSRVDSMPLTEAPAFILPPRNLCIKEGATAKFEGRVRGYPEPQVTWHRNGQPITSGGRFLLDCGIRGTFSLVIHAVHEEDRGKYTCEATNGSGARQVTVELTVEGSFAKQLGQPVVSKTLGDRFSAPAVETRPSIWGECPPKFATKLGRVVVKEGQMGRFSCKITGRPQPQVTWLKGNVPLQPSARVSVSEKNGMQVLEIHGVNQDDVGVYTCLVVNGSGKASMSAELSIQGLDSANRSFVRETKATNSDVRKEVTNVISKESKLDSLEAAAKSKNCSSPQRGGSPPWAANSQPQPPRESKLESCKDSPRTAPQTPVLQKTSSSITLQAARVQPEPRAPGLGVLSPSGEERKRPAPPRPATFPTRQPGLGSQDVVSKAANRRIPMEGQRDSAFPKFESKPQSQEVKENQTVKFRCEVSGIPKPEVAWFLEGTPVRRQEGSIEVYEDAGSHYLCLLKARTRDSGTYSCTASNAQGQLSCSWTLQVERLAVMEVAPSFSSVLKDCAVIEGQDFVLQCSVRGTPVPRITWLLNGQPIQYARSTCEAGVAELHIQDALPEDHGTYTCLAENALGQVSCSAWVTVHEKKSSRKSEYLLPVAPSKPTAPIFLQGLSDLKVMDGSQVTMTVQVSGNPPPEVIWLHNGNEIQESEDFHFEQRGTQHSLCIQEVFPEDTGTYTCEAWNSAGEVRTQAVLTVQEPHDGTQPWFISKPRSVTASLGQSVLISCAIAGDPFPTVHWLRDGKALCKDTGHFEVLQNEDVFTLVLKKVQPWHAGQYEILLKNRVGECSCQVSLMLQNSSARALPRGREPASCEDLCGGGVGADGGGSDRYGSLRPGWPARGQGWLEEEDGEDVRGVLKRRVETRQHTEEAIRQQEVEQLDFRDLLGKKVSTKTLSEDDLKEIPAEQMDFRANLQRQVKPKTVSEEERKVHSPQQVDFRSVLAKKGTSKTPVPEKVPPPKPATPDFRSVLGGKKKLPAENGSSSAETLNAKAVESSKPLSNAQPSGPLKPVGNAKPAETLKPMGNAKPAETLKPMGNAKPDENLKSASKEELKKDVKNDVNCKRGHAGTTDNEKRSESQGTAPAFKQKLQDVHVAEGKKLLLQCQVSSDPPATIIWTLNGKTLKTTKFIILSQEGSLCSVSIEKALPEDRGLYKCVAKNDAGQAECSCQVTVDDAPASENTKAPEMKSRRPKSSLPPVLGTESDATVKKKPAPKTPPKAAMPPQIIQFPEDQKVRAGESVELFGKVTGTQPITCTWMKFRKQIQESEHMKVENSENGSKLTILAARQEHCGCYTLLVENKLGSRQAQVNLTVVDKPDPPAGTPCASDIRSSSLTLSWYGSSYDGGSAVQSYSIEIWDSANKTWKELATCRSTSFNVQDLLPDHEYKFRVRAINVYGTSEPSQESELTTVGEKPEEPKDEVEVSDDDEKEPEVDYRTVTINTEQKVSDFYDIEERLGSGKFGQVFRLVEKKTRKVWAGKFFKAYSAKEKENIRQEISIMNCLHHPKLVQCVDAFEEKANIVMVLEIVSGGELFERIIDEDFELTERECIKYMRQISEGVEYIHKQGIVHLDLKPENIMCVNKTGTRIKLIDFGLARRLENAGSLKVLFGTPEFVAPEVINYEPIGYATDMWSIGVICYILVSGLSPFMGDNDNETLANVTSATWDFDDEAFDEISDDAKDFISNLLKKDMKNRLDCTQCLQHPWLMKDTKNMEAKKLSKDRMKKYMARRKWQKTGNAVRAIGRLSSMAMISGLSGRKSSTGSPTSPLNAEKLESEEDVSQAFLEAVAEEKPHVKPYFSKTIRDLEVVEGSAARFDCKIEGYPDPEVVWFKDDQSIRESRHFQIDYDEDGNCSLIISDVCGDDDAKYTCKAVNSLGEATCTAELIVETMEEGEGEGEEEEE
Chain of TGF-beta receptor type-2 (Homo sapiens) (P37173 whole entry): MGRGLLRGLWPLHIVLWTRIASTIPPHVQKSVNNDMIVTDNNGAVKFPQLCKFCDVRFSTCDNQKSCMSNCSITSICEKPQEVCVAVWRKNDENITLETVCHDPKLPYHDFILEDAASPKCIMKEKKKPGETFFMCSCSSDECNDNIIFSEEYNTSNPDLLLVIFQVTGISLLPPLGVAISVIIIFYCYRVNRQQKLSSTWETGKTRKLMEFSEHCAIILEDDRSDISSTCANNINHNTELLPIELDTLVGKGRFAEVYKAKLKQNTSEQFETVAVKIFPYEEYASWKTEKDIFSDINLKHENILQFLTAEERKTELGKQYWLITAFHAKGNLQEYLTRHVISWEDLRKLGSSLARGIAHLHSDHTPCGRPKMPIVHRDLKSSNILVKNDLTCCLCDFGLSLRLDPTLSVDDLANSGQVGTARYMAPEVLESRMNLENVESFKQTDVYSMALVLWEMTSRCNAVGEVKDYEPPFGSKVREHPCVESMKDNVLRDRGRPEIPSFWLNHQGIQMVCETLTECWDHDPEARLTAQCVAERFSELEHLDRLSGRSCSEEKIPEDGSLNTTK
Chain of Calcium/calmodulin-dependent protein kinase type II subunit delta (Homo sapiens) (Q13557 whole entry): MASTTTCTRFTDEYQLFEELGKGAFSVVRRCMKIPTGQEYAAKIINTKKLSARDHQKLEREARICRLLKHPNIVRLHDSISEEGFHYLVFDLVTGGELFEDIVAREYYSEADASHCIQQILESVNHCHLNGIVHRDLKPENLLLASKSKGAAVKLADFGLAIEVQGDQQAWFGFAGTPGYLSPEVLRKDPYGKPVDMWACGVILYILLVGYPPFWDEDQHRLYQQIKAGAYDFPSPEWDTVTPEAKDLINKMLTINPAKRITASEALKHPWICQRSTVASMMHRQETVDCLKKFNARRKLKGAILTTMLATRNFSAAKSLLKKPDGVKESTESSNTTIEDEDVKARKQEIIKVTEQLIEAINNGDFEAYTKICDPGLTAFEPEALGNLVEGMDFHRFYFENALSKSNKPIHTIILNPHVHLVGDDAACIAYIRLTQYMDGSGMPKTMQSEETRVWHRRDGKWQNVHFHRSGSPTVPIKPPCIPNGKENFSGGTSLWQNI
Chain of MAP kinase-interacting serine/threonine-protein kinase 1 (Homo sapiens) (Q9BUB5 whole entry, looked up): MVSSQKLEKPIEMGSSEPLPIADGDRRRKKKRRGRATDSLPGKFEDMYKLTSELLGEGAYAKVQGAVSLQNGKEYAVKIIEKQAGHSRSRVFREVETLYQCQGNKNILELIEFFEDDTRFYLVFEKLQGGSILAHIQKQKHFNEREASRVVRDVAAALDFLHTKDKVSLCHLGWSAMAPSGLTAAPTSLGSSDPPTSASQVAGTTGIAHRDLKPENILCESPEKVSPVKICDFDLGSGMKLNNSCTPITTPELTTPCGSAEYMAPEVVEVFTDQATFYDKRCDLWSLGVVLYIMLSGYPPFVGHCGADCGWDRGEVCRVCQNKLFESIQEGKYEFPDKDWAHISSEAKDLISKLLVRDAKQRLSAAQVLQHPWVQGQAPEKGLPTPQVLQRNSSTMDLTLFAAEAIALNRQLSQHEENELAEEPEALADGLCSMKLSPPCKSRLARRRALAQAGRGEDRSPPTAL
Chain of TGF-beta receptor type-1 (Homo sapiens) (P36897 whole entry): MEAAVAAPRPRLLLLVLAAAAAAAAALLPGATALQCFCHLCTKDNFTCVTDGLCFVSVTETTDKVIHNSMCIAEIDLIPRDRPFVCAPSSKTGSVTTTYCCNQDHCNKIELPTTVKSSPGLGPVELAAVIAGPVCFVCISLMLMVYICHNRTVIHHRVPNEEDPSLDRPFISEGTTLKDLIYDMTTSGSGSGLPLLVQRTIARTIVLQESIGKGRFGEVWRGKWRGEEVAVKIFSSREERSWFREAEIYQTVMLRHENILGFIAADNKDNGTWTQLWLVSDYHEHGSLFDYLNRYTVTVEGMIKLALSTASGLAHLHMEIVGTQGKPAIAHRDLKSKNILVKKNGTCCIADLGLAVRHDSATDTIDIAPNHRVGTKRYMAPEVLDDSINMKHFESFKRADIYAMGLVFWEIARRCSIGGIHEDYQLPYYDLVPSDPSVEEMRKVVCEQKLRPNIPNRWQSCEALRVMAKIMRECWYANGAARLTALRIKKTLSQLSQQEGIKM
Chain of Tyrosine-protein kinase Fer (Homo sapiens) (P16591 whole entry, looked up): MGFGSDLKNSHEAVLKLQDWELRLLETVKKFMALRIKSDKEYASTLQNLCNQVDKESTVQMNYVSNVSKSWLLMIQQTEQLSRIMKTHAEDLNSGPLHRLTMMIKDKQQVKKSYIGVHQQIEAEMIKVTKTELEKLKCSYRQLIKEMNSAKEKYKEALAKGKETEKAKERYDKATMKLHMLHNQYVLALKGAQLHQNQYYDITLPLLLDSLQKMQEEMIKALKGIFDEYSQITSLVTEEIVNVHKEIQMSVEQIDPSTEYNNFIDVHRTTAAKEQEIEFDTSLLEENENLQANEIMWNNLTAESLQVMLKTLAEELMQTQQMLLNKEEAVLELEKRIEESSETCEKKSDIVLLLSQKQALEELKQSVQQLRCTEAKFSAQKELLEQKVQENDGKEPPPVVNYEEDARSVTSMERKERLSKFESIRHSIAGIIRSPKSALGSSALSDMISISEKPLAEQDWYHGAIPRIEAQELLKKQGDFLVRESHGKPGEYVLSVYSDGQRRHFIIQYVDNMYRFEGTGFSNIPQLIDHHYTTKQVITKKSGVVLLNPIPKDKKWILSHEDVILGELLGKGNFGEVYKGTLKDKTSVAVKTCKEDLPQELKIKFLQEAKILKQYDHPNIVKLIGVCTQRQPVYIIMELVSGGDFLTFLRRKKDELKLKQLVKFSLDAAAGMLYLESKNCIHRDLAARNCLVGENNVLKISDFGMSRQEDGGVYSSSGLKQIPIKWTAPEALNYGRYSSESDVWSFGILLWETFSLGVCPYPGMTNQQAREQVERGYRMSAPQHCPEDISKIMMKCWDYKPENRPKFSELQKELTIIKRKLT

As to `Cc1c2c(cc[n+]1Cc1ccc(F)cc1)c1ccc(OCc3cccc(F)c3)cc1n2Cc1cccc(F)c1.[Br-]`, the inhibition result (in data set [1]; in the data set on U-373MG ATCC; in data set [2]; in the data set with Hs 683 [3]) was “Active” throughout. Besides, the Activity entry in the data set filed under Mus musculus is “Non-toxic”; in data set [5] it was 8%; in [6] it was 7%; in data set [7] it was 6%; in data set [8] it was 6%; in data set [9] it was 10%. Moreover, the Activity is 7% in [10]; 2% in data set [11]; 2% in data set [12]; 1% in data set [13]; under 1% in data set [14]; 10% in [18]. The solubility – broadly, how much of the substance goes into solution per volume – in data set [4] was determined as 53 µM. In [15], the Ratio came out at 0.53. The 50% inhibitory concentration (IC50) (usually the point on the concentration scale where inhibition reaches its midpoint) in data set [16] was found to be 2.9 µM; in the data set on OE33, 3.4 µM; with Hs 683 [17], 4.5 µM; with T98G, 1.9 µM; in “cells”, 0.9 µM.
Turning to `Cc1nccc2c1[nH]c1cc(OCc3cccnc3)ccc12`, the Ratio in data set [19] came to 0.29. Further, the IC50 in [20] is 10 µM; in data set [16] it was 28 µM; in the data set with OE33, 31 µM; in the data set with Hs 683 [17], 30 µM; with T98G, 29 µM; in “cells”, 24 µM.
Take `Cc1nccc2c3ccc(OCC4CCCCC4)cc3n(CC3CCCCC3)c12`: the Ratio in [21] was 0.17. Moreover, the IC50 is over 10 µM in data set [20]; 17 µM in [16]; 15 µM in the data set on OE33; 30 µM in the data set with Hs 683 [17]; 32 µM in the data set with T98G; 31 µM in “cells”.
In the case of `Cc1nccc2c3ccc(OCc4ccccc4)cc3n(Cc3ccccc3)c12`, the solubility in [4] (read-out: solubility) is under 3 µM. The Ratio in [22] is 0.3. Further, the half-maximal inhibitory concentration (IC50) in data set [16] was found to be 28 µM; in the data set on OE33, 40 µM; in the data set on Hs 683 [17] it was 33 µM; with T98G, 36 µM; in the data set “cells”, 18 µM.
As for `COCCOc1ccc2c(c1)[nH]c1c(C)nccc12`, in data set [23], the Ratio is listed as 0.23. The concentration for half-maximal inhibition (IC50) in [20] worked out at 16 µM; in [16] it was 53 µM; in the data set with OE33, 66 µM; in the data set with Hs 683 [17] it was 53 µM; in the data set on T98G it was 61 µM; in “cells” it was 64 µM.
Consider `Cc1nccc2c1[nH]c1cc(OCc3ccncc3)ccc12`, for which the IC50 in data set [16] was 5 µM; in the data set on OE33, 6.3 µM; in the data set with Hs 683 [17], 8.1 µM; with T98G, 3.6 µM; in the data set “cells”, 2.5 µM.
